The record followed here is patent publication US20080076770A1, “SOLUBLE EPOXIDE HYDROLASE INHIBITORS” (Arete Therapeutics, Inc., priority 2006, published 2008).

For data set [1], the system named is soluble epoxide hydrolase (sEH). In words: Fluorescent assay for mouse and human soluble epoxide hydrolase (CMNPC substrate). The settings on record: recombinant sEH, CMNPC substrate 5 μM, 30° C. It is filed as biochemical. From the text:
Fluorescent Assay for Mouse and Human Soluble Epoxide Hydrolase
Recombinant mouse sEH (MsEH) and human sEH (HsEH) were produced in a baculovirus expression system as previously reported. Grant et al., J. Biol. Chem., 268:17628-17633 (1993); Beetham et al., Arch. Biochem. Biophys., 305:197-201 (1993). The expressed proteins were purified from cell lysate by affinity chromatography. Wixtrom et al., Anal. Biochem., 169:71-80 (1988). Protein concentration was quantified using the Pierce BCA assay using bovine serum albumin as the calibrating standard. The preparations were at least 97% pure as judged by SDS-PAGE and scanning densitometry. They contained no detectable esterase or glutathione transferase activity which can interfere with the assay. The assay was also evaluated with similar results in crude cell lysates or homogenate of tissues.
The IC50s for each inhibitor were according to the following procedure: Substrate: [drawing 66]
Cyano(2-methoxynaphthalen-6-yl)methyl (3-phenyloxiran-2-yl)methyl carbonate (CMNPC; Jones P. D. et. al.; Analytical Biochemistry 2005; 343: pp. 66-75)
Bis/Tris HCl 25 mM pH 7.0 containing 0.1 mg/mL of BSA (buffer A)
CMNPC at 0.25 mM in DMSO.
Mother solution of enzyme in buffer A (Mouse sEH at 6 μg/mL and Human sEH at 5 μg/mL).
Inhibitor dissolved in DMSO at the appropriate concentration.
In a black 96 well plate, fill all the wells with 150 μL of buffer A.
Add 2 μL of DMSO in well A2 and A3, and then add 2 μL of inhibitor solution in A1 and A4 through A 12.
Add 150 μL of buffer A in row A, then mix several time and transfer 150 μL to row B. Repeat this row operation up to row H. The 150 μL removed from row H go to the trash.
Add 20 μL of buffer A in column 1 and 2, then add 20 μL of enzyme solution to column 3 to 12.
Incubate the plate for 5 minutes in the plate reader at 30° C.
During incubation prepare the working solution of substrate by mixing 3.68 mL of buffer A (4×0.920 mL) with 266 μL (2×133 μL (2×133 μL) of substrate solution).
At t=0, add 30 μL of working substrate solution with multi-channel pipette labeled “Briggs 303” and start the reading ([S]final: 5 μM).
Read with ex: 330 nm (20 nm) and em: 465 nm (20 nm) every 30 second for 10 minutes. The velocities are used to analyze and calculate the IC50s.

Molecules are shown by their SMILES. Some results are limits rather than exact numbers.

As for `O=C(Nc1ccc(N2CCOCC2)cc1)Nc1ccc(C(F)(F)F)cc1` [Compound 14, 1-(4-Morpholin-4-yl-phenyl)-3-(4-trifluoromethyl-phenyl)-urea], the melting point was 228 to 232 °C. Besides, the “% I” value in data set [1] (compound concentration 50 nM) is on record as 87%.
In the case of `Cc1nccn1-c1ccc(NC(=O)Nc2ccc(C(F)(F)F)cc2)cc1` [Compound 12, 1-[4-(2-methyl-1H-imidazol-1-yl)-phenyl]-3-(4-trifluoromethyl-phenyl)-urea], the melting point was in the range of 234 to 238 °C. The “% I” value in data set [1] (compound concentration 50 nM) was found to be 96%.
The like results for `O=C(Nc1ccc(C(F)(F)F)cc1)Nc1cccc(N2CCOCC2)c1` [Compound 19, 1-(3-Morpholin-4-yl-phenyl)-3-(4-trifluoromethyl-phenyl)-urea] were, in that order, 240 to 244 °C and 79%.
Turning to `O=C(Nc1cccc(N2CCCC2=O)c1)NC12CC3CC(CC(C3)C1)C2` [Compound 10, 1-Adamantan-1-yl-3-[3-(2-oxo-pyrrolidin-1-yl)-phenyl]-urea], the melting point fell in the range of 239 to 242 °C. Besides, the “% I” value in data set [1] (compound concentration 500 nM) stood at 88%.
As for `O=C(Nc1ccc(C(F)(F)F)cc1)Nc1cccc(N2CCCC2=O)c1` [Compound 20, 1-[3-(2-Oxo-pyrrolidin-1-yl)-phenyl]-3-(4-trifluoromethyl-phenyl)-urea], the melting point is 220 to 224 °C. The “% I” value in data set [1] (compound concentration 50 nM) is given as 84%.
As to `O=C(Nc1ccc(-n2ccnc2)cc1)NC12CC3CC(CC(C3)C1)C2` [Compound 1, 1-Adamantan-1-yl-3-[4-(1H-imidazol-1-yl)-phenyl]-urea], the melting point is 272 to 276 °C.
On to `O=C(Nc1ccc(-n2cnc(Cl)c2Cl)cc1)Nc1ccc(C(F)(F)F)cc1` [Compound 13, 1-[4-(4,5-dichloro-1H-imidazol-1-yl)-phenyl]-3-(4-trifluoromethyl-phenyl)-urea], for which the melting point lay within 221 to 224 °C. In addition, in data set [1] (compound concentration 50 nM), the “% I” value was found to be 95%.
For `O=C(Nc1ccc(-n2ccnc2)cc1)Nc1ccc(C(F)(F)F)cc1` [Compound 11, 1-(4-(1H-imidazol-1-yl)-phenyl)-3-(4-trifluoromethyl-phenyl)-urea] the same measures were 209 to 213 °C and 92%.
Consider `O=C(Nc1ccc(N2CCCC2=O)cc1)Nc1ccc(C(F)(F)F)cc1` [Compound 15], for which the melting point is 282 to 285 °C. The “% I” value in data set [1] (compound concentration 50 nM) is listed as 74%.
Turning to `O=C(Nc1ccc(N2CCCC2=O)cc1)NC12CC3CC(CC(C3)C1)C2` [Compound 5, 1-Adamantan-1-yl-3-[4-(2-oxo-pyrrolidin-1-yl)-phenyl]-urea], the melting point is > 300 °C. Further, the “% I” value in data set [1] (compound concentration 50 nM) is 82%.
